“Also recorded” adds a separate entry of the source. A value given as a limit tells only on which side of the number the result lay.

We go through eight molecules from PMC10494213 (iScience, 2023).

The conditions of data set [1]: cited from earlier work.
For data set [2] the following is noted: carp, Coote natural Marsh in Canada; cited from earlier work.
The subject of data set [3] is fish. The note with it: cited from earlier work.
The conditions of data set [4]: EEC 3, 10, 30 μg/L; cited from earlier work.
Data set [5] deals with abat. Description: Real-time PCR of neurotransmitter-related gene abat. In kind it is in vivo, zebrafish. The note with it: seven days, four concentrations (1, 10, 100, 1000 μg/L) vs control, p<0.05.
For data set [6], the system named is gamma-aminobutyric acid (GABA). Description: GABA level in whole zebrafish by ELISA after 7-day CMZ exposure. In kind it is in vivo. The note with it: seven days of CMZ exposure vs control group (p<0.05; 1000 μg/L p<0.01). A general note: In an ELISA, binding on a coated surface is turned into a signal by an enzyme label.
For data set [7], the system named is acetylcholine (ACh). Description: ACh level in whole zebrafish by ELISA after 7-day CMZ exposure. The following applies: 7-day exposure 1, 10, 100, 1000 μg/L vs control group. In kind it is in vivo.
For data set [8] the following is noted: human; cited from earlier work.
For data set [9], the system named is glutamic acid (Glu). Description: Glu level in whole zebrafish by ELISA after 7-day CMZ exposure. In kind it is in vivo. The note with it: seven days of CMZ exposure vs control group (p<0.05; 1000 μg/L p<0.01).
The subject of data set [10] is GABA. The following applies: zebrafish embryos, CMZ 1, 10, 100 μg/L; cited from earlier work.
In data set [11] the test system is spermatozoa. The note with it: 2.0 and 20 mg/L; cited from earlier work.
In data set [12] the test system is zebrafish larvae. Description: Zebrafish larval motor behavior. It is filed as in vivo. The note with it: 7 days exposure.
In data set [13] the test system is acetylcholinesterase (AChE). The data set can be described thus: AChE in whole zebrafish by ELISA after 7-day CMZ exposure. The note with it: 7-day exposure 1, 10, 100, 1000 μg/L vs control group. It is filed as in vivo.
Data set [14] relates to zebrafish embryos and larvae. The following applies: 1 μg/L; cited from earlier work.
Data set [15] is described as follows: Measured fish plasma concentration. It is filed as in vivo, zebrafish (Danio rerio). The note with it: for Measured FPC/Predicted FPC / Measured FPC: 7-day exposure; for Measured FPC: mean ± SD, n = 3.
For data set [16], the system named is AChE. The note with it: muscle (10000 μg/L) and head (10 and 10000 μg/L), exposure of 63 days, p<0.05; cited from earlier work.
The test system of data set [17] is Glu. The note with it: zebrafish embryos, CMZ 1, 10, 100 μg/L; cited from earlier work.
A short description of data set [18]: Uptake of CMZ in zebrafish muscle during 7-day water exposure. In kind it is in vivo, zebrafish (Danio rerio). The note with it: male, other: water exposure (waterborne); for concentration at 7 d: muscle; for Kp at 7 d: muscle/plasma.

Regarding `C#C[C@]1(O)CC[C@H]2[C@@H]3CCC4=CC(=O)CC[C@@H]4[C@H]3CC[C@@]21CC` [Levonorgestrel], the “log Kow” value in data set [1] was 3.72.
Turning to `O=C(Nc1ccc(Cl)cc1)Nc1ccc(Cl)c(Cl)c1` [triclocarban], the “measured BCFs relative to the predicted BCFs” value in [2] is listed as not above 3 times.
For `CN[C@H]1CC[C@@H](c2ccc(Cl)c(Cl)c2)c2ccccc21` [Sertraline], the shelter-seeking behavior result in data set [3] (when the FPC exceeded the human therapeutic threshold) is “statistically significant reductions”. Besides, the “Predicted FPC vs Measured FPC” value in data set [4] was “very close”.
As to `NC(=O)N1c2ccccc2C=Cc2ccccc21` [CMZ, Carbamazepine], the “expression of the abat gene” value in data set [5] is listed as “significantly down-regulated”. In addition, in data set [6], the GABA level result is “appreciably increased”. Moreover, in data set [7], the “level of ACh” value is “gradually decreased; also recorded: significantly decreased”. Moreover, the Dlipw in data set [1] (pH 7.4, ref http://www.chemspider.com/Chemical) was 2.92. Besides, the “maximum HTPC” value in data set [8] was 12 mg/L. Besides, the Glu level result in data set [9] was “appreciably increased”. The GABA concentration result in [10] is listed as “increased”. In [11], the “percentage of spermatozoa motile and velocity” value is “significantly reduce”. Besides, in data set [12] (1000 μg/L, p<0.05), the “total movement distance of the larvae” value was “significantly higher than that of the control group”. In data set [12] (1, 10, 100 μg/L, p>0.05), the “total distance traveled by larvae” value was “slightly lower than that of the control group, but there was no significant difference”. Also, the “level of AChE” value in [13] was “gradually decreased; also recorded: significantly decreased”. In addition, the “movement and rest percentage of zebrafish embryos and larvae” value in data set [14] is “significantly affected”. Besides, the “Measured FPC/Predicted FPC” value in [15] (external 1 μg/L) is 1.84 ± 0.27; in [15] (external 100 μg/L), 2.14 ± 0.08; in [15] (external 1000 μg/L), 0.31 ± 0.01. Moreover, the “Measured FPC” value in [15] (external 1 μg/L (nominal)) was 25.47 ± 3.78 µg/L; in [15] (external 10 μg/L (nominal)) it was 1311.10 ± 80.26 µg/L; in [15] (external 100 μg/L (nominal)), 2953.30 ± 109.20 µg/L. In addition, the “measured FPC value as share of the predicted value” in data set [15] (external 1000 μg/L) was 31.05%. The concentration at 7 d in data set [15] (male, AB, zebrafish, plasma, other: water exposure (waterborne), corresponding FPCs, low ambient exposure 1 and 10 μg/L) was 25.5 to 1310 ng/mL; in data set [18] (10 μg/L) it was 35.4 ± 7.9 ng/g; in data set [18] (100 μg/L), 420 ± 77.5 ng/g; in [18] (1000 μg/L), 2330 ± 127 ng/g. Also, the ER values in data set [15] (ratio of HTPC and FSSPC, Equation 3, all exposure concentrations) is on record as less than 1000. Also, in [16], the AChE activity result is reported as “considerably increased”. Further, the Glu concentration result in [17] is “reduced”. Moreover, the Kp (usually tissue or fluid exposure divided by exposure in the circulation) at 7 d in data set [18] (10 μg/L) was determined as 0.26 ± 0.06; in [18] (100 μg/L), 0.14 ± 0.03; in [18] (1000 μg/L), 0.54 ± 0.03.
In the case of `O=C1NC(=O)C(c2ccccc2)(c2ccccc2)N1` [phenytoin], in data set [2], the “measured BCFs relative to the predicted BCFs” value is given as not above 3 times.
Regarding `CCC(=O)OCC(=O)[C@@]1(OC(=O)CC)[C@@H](C)C[C@H]2[C@@H]3CCC4=CC(=O)C=C[C@]4(C)[C@@]3(Cl)[C@@H](O)C[C@@]21C` [Beclomethasone Dipropionate, beclomethasone dipropionate], the “log Kow” value in [1] is listed as 3.69.
Turning to `O=C1Nc2ccc(Cl)cc2C(c2ccccc2)=NC1O` (stereo not shown) [Oxazepam], in [3] (fish exposed to 4.7 μg/L), the “behavior in the novel tank diving test” value is listed as “statistically significant behavioral effect”.
Regarding `CCN(CC)C(=O)c1cccc(C)c1` [N,N-diethyl-m-toluamide], in [2], the “measured BCFs relative to the predicted BCFs” value is not above 3 times.
